# Like-named read-outs stand apart in the source and are kept apart here.
# Legend:
# High Five cells [1] = conditions: for VP1 band intensity (relative value): MOI=0.1, day 4 supernatant, negative control = 100%
# Procedure: High Five cells (Thermo Fisher Scientific, Express Five™ SFM) were seeded at a seeding concentration of 1×10^6 cells/mL so as to satisfy a culture scale of 30 mL.
# High Five cells [2] = system: High Five cells
# Procedure: High Five cells (Thermo Fisher Scientific, Express Five™ SFM) were seeded at a seeding concentration of 1×10^6 cells/mL so as to satisfy a culture scale of 30 mL. Twenty-four hours after the initiation of culture, calcium chloride was added so as to increase a final concentration by 1, 10 and 100 mM. Here, a calcium chloride-free group was used as a control. From day 3 to 5, the cell culture solution was sampled and stained with a 0.2% trypan blue solution. The numbers of viable cells and dead cells were counted by a hemocytometer. From the total cell count and the viable-cell count, the rate of viable cells was calculated.
# High Five cells [3] = conditions: MOI=0.5, day 4 supernatant; for improvement of the yield of the recombinant protein: relative to absence of calcium chloride
# Procedure: A High Five cell culture solution in which cells were seeded at a seeding concentration of 1×10^6 cells/mL so as to satisfy a culture scale of 30 mL, was infected with a recombinant baculovirus prepared by integrating a gene sequence of a norovirus VP1 protein, at MOI=0.5. On Day 1 after the initiation of culture, calcium chloride was added so as to increase a final concentration by 2.5, 25, 250, 500 and 1 000 μM, and then, the cell culture was continued. On day 3, Benzonase (Merck) was added so as to be a final concentration of 50 U/mL and […] protease inhibitor tablets (Thermo Fisher Scientific) was added, and then, the cell culture was continued. On day 4, the culture supernatant was collected in the same manner as in Example 2 and subjected to Western Blotting.
# For Western Blotting, after electrophoresis was carried out in the same manner as in Example 1, a transfer reaction was carried out from the gel to PVDF membrane (Merck) by a semi-dry transfer device (ATTO CORPORATION). After the transfer reaction, the PVDF membrane was soaked in a 10% skim milk-containing TBS and incubated at room temperature for two hours. After the PVDF membrane was washed three times with an appropriate amount of TBS and soaked in an anti-norovirus VP1 protein antibody (manufactured by the inventors) diluted with a 1% skim milk-containing TBST and incubated at 4° C. for from 18 to 20 hours. The PVDF membrane was washed five times with an appropriate amount of TBST, soaked in a HRP-labeled anti-mouse antibody (Jackson Immuno Research Laboratories) diluted with 1% skim milk-containing TBST, and incubated at room temperature for one hour. The PVDF membrane was washed five times with an appropriate amount of TBST and allowed to develop color with Western Lightning-Plus ECL (Perkin Elmer). The PVDF membrane was photographed by an image analyzer (Bio-Rad) and subjected to densitometric analysis.
# Densitometric analysis was carried out in the same manner as in Example 1, and the relative amount of VP1 to the condition in the absence of calcium chloride was calculated.
structure (smiles),measurement,setting,value
[Ca+2].[Cl-].[Cl-] [calcium chloride],VP1 band intensity (relative value),High Five cells [1]; 25 μM calcium chloride added 0 hr after infection,102%
same,improvement of the yield of a protein of interest,"High Five cells [1]; 25 μM calcium chloride added 24 hours after the initiation of culture, relative to absence of calcium chloride",about 108
same,VP1 band intensity (relative value),High Five cells [1]; 25 μM calcium chloride added 24 hr after infection,111%
same,VP1 band intensity (relative value),High Five cells [1]; 25 μM calcium chloride added 48 hr after infection,102%
same,concentration of calcium chloride that is not cytotoxic,"High Five cells [2]; High Five cells, day 3 to 5",≤ 1000 µM
same,viable cell rate,"High Five cells [2]; calcium chloride final concentration increased by 1 mM, added 24 h after initiation of culture, day 3 to 5, versus calcium chloride-free control",the same as in the control
same,viable cell rate,"High Five cells [2]; calcium chloride final concentration increased by 10 mM, day 3",low
same,viable cell rate,"High Five cells [2]; calcium chloride final concentration increased by 100 mM, day 3",low
same,improvement of the yield of the recombinant protein,High Five cells [3]; calcium chloride 25 μM added on Day 1,about 40%
same,improvement of the yield of the recombinant protein,High Five cells [3]; calcium chloride 250 μM added on Day 1,about 40%
same,yield of the recombinant protein,High Five cells [3]; calcium chloride 500 μM added on Day 1,seems to decrease
same,yield of the recombinant protein,High Five cells [3]; calcium chloride 1 000 μM added on Day 1,seems to decrease

# — patent US20250051820A1 (priority 2021, published 2025)
